Laboratory results as given in patent US9226912B2, “Acetyltanshinone IIA (ATA) as anticancer agent” (Nanyang Technological University, priority 2011, dated 2016).

What was measured:
MDA-MB-435 = test: IC50 and LC50 of ATA at 48 h; format: cell-based; conditions: Homo sapiens, MDA-MB-435 melanoma
A549 = test: IC50 of ATA at 72 h; format: cell-based; conditions: Homo sapiens, A549 lung cancer cells
Procedure: (§1) The cytotoxcitiy of ATA was assessed in cancer cell lines and normal cells. In order to do so the IC50 of ATA at 72 h in multiple cancer cell lines or normal cell lines including muscle and fibroblast cells was evaluated.

C2C12 (non-cancerous) = test: IC50 of ATA at 72 h; format: cell-based; conditions: Mus musculus, C2C12 myoblast (normal muscle cells)
Procedure: as §1

Caco2 = test: IC50 of ATA at 72 h; format: cell-based; conditions: Homo sapiens, Caco-2, Caco2 colorectal adenocarcinoma
Procedure: as §1

HCT 116 = test: IC50 of ATA at 72 h; format: cell-based; conditions: Homo sapiens, HCT 116 colorectal adenocarcinoma
Procedure: as §1

HCT 15 = test: IC50 of ATA at 72 h; format: cell-based; conditions: Homo sapiens, HCT 15 colorectal adenocarcinoma
Procedure: as §1

HeLa = test: IC50 of ATA at 72 h; format: cell-based; conditions: Homo sapiens, HeLa cervical cancer cells
Procedure: as §1

HepG2 = test: IC50 of ATA at 72 h; format: cell-based; conditions: Homo sapiens, HepG2 liver cancer cells
Procedure: as §1

IMR-90 (non-cancerous) = test: IC50 of ATA at 72 h; format: cell-based; conditions: Homo sapiens, IMR-90 fibroblast (normal lung cells)
Procedure: as §1

K-562 = test: IC50 of ATA at 72 h; format: cell-based; conditions: Homo sapiens, K562, K-562 leukaemia cells
Procedure: as §1

SK-N-SH = test: IC50 of ATA at 72 h; format: cell-based; conditions: Homo sapiens, SK-N-SH neuroblastoma
Procedure: as §1

ERα in MCF-7 cells = target: T1, ERα in MCF-7 cells (Homo sapiens, UniProt P03372); test: ERα protein level by immunostaining and Western blot; format: cell-based
T1 construct: endogenous in cells; host or cells: MCF-7 human breast cancer cells
T1 sequence (P03372 1-595): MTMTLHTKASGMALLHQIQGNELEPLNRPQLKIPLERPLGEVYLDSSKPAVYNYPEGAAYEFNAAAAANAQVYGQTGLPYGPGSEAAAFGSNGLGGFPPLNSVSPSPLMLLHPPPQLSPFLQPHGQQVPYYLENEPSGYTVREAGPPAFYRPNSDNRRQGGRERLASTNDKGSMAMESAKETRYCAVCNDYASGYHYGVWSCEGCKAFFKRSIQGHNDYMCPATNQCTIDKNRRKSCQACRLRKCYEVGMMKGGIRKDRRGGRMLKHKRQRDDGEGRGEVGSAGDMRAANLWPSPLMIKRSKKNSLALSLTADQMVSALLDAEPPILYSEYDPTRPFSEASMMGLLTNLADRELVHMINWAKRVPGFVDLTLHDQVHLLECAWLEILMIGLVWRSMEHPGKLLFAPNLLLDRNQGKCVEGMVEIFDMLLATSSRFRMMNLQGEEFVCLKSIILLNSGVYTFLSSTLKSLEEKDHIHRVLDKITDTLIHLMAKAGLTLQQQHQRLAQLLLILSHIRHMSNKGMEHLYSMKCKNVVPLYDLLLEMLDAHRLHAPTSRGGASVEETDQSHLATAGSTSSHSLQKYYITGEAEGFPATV
Procedure: (B) Western blot analysis of ERα levels in normal medium-cultured MCF-7 cells at different times with 6 μM ATA treatment.
Thus, immunostaining was used to exam the protein level of ERα in MCF-7 cells after ATA treatment. It was observed that ERα was mainly localized in the nucleus (FIG. 6A) in the control cells, which had been cultured in the charcoal-stripped medium for 4 days.
Subsequently, Western blot analysis was used to confirm this prediction. […] To ensure that ATA produced a similar effect in the MCF-7 cells under a physiological condition, Western blotting was used to determine the protein level of ERα in normal medium-cultured MCF-7 cells with or without ATA treatment.

ERα in BT474 cells = target: T2, ERα in BT474 cells (Homo sapiens, UniProt P03372); test: ERα protein level by Western blotting; format: cell-based; conditions: 6 μM ATA or 1 μM fulvestrant
T2 construct: endogenous in cells; host or cells: BT474 human breast cancer cells
Procedure: Cells were treated with 6 μM ATA or 1 μM fulvestrant for indicated times and analyzed by Western blotting.

ESR1 mRNA in MCF-7 cells = test: Real-time PCR of ESR1 mRNA level; conditions: 100 pM estrogen plus 6 μM compound
Procedure: MCF-7 cells cultured in the charcoal-stripped medium were used as control for the 0 h sample.

[1] = test system: GREB1 mRNA in MCF-7 cells; test: Real-time PCR of GREB1 mRNA level; conditions: for GREB1 mRNA level, fold of the control: 100 pM estrogen plus 6 μM ATA, charcoal-stripped medium
Procedure: In order to do so, the mRNA level of a non-ER regulated gene GAPDH was measured and used as a reference. MCF-7 cells cultured in the charcoal-stripped medium were used as a control.

BT474 = test: Growth inhibition at 72 h by MTT assay
[2] = 6 μM ATA, 3 h, charcoal-stripped medium, immunostaining

## CC(=O)Oc1c(OC(C)=O)c2c(C)coc2c2ccc3c(c12)CCCC3(C)C [ATA, 1,6,6-trimethyl-8,9-dihydro-10,11-diacetoxyl-7H-naphtho[1,2-g][1]benzofuran]
MDA-MB-435
  CC50: 2740 ± 510 nM
  IC50: 550 ± 150 nM
A549
  IC50: 810 ± 130 nM
C2C12 (non-cancerous)
  IC50: 10200 ± 1440 nM
Caco2
  IC50: 2500 ± 450 nM
HCT 116
  IC50: 2280 ± 490 nM
HCT 15
  IC50: 560 ± 80 nM
HeLa
  IC50: 690 ± 190 nM
HepG2
  IC50: 4270 ± 730 nM
IMR-90 (non-cancerous)
  IC50: 15500 ± 710 nM
K-562
  IC50: 1690 ± 340 nM
SK-N-SH
  IC50: 1240 ± 120 nM
ERα in MCF-7 cells; 6 μM ATA, 24 and 48 h, normal medium, Western blot
  ERα protein level: significantly decreased
ERα in MCF-7 cells; [2]
  ERα fluorescence intensity in the cytosol: remained unchanged
  level of ERα in the nucleus: greatly reduced
ERα in MCF-7 cells; 4 h, charcoal-stripped medium, Western blot
  total protein level of ERα: slightly reduced
ERα in MCF-7 cells; after 8 h, charcoal-stripped medium, Western blot
  total protein level of ERα: significantly reduced
ERα in BT474 cells
  level of ERα: reduced the level of ERα and HER2
ESR1 mRNA in MCF-7 cells; 12 h, charcoal-stripped medium
  level of ESR1 mRNA over control: 55%
ESR1 mRNA in MCF-7 cells; 24 h, charcoal-stripped medium
  level of ESR1 mRNA over control: 31%
ESR1 mRNA in MCF-7 cells; 24 h, normal medium
  level of ESR1 mRNA over control: about 30%
ESR1 mRNA in MCF-7 cells; 36 h and 48 h, charcoal-stripped medium
  level of ESR1 mRNA over control: about 50%
[1]; 4 h
  GREB1 mRNA level, fold of the control: 6.4 fold
[1]; 12 h
  GREB1 mRNA level, fold of the control: 7.9 fold
[1]; 100 pM estrogen plus 6 μM compound, 24 h, normal medium
  GREB1 level of the control: about 50%
BT474; BT474 (ER+/HER2+), 72 h
  IC50 ratio of tamoxifen/ATA: 6.2
BT474; Homo sapiens, BT-474, 72 h
  IC50: 1000 nM
BT474; Homo sapiens, BT-474, 72 h, read-out: growth inhibition rate
  inhibition at 3.13 µM: 146%
